Results reported in ChEMBL document CHEMBL4739716, “Gpr139 receptor modulators” (2020).

Experiments:
[1] = target: T1, Probable G-protein coupled receptor 139 (Homo sapiens, UniProt Q6DWJ6); assay: Agonist activity at human GPR139 expressed in CHO-K1 cells assessed as increase in calcium flux by calcium 5 dye based FLIPR assay; format: functional, cell-based
T1 sequence (Q6DWJ6 whole entry): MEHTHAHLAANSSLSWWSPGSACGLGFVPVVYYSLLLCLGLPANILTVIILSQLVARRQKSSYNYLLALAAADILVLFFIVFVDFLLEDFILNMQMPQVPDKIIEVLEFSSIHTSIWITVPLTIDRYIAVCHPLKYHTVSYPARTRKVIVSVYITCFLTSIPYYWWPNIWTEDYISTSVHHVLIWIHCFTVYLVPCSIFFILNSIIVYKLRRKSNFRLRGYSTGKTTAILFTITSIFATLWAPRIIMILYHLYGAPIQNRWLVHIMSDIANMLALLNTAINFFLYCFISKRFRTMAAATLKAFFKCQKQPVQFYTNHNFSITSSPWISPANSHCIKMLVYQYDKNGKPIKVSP

[2] = target: T2, Probable G-protein coupled receptor 139 (Homo sapiens) (UniProt Q6DWJ6); assay: Agonist activity at human GPR139 expressed in CHO-K1 cells assessed as increase in calcium flux by calcium 5 dye based FLIPR assay relative to JNJ63533054; format: functional, cell-based; conditions: filed as agonist
T2 sequence (whole entry): T1 sequence (Q6DWJ6 whole entry)

[3] = target: T3, Probable G-protein coupled receptor 139 (Rattus norvegicus, UniProt P0C0W8); assay: Agonist activity at rat GPR139 expressed in CHO-K1 cells assessed as increase in calcium flux by calcium 5 dye based FLIPR assay; format: cell-based
T3 sequence (P0C0W8 whole entry): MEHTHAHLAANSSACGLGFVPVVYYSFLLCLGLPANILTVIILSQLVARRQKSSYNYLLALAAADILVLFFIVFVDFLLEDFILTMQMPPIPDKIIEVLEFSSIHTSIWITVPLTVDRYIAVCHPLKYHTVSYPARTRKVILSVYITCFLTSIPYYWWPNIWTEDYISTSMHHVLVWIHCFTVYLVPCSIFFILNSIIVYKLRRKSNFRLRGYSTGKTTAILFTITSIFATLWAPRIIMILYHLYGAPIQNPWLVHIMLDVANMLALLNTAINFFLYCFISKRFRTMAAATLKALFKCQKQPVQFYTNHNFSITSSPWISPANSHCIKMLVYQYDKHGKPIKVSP

[4] = target: T4, Probable G-protein coupled receptor 139 (Rattus norvegicus) (UniProt P0C0W8); assay: Agonist activity at rat GPR139 expressed in CHO-K1 cells assessed as increase in calcium flux by calcium 5 dye based FLIPR assay relative to JNJ63533054; format: cell-based
T4 sequence (whole entry): T3 sequence (P0C0W8 whole entry)

[5] = target: T1, Probable G-protein coupled receptor 139; assay: Agonist activity at human GPR139 expressed in CHO-K1 cells assessed as induction of beta-arrestin 2 recruitment incubated for 90 mins by PathHunter assay; format: cell-based
[6] = target: T2, Probable G-protein coupled receptor 139 (Homo sapiens); assay: Agonist activity at human GPR139 expressed in CHO-K1 cells assessed as induction of beta-arrestin 2 recruitment incubated for 90 mins by PathHunter assay relative to JNJ63533054; format: cell-based

| SMILES | EC50 [1] [nM] | Emax [2] [%] | EC50 ([3]; cho-k1) [nM] | Emax ([4]; filed as agonist) [%] | EC50 ([5]; cho-k1) [nM] | Emax ([6]; filed as agonist) [%] | EC50 ([1]; cho-k1) [nM] | EC50 [5] [nM] | EC50 [3] [nM] | Emax [4] [%] | Emax [6] [%] |
| --- | --- | --- | --- | --- | --- | --- | --- | --- | --- | --- | --- |
| COc1cccc2nn(CC(=O)N[C@@H](C)c3ccc(Cl)cc3)c(=O)n12 | < 1 | 50 | 1 | 50 | 1 | 50 |  |  |  |  |  |
| C[C@H](NC(=O)Cn1nc2cc(N3CCC[C@@H](O)C3)ccn2c1=O)c1ccc(OC(F)(F)F)cc1 |  | > 80 | 1 | > 80 |  | > 80 | 1 | ≥ 100 |  |  |  |
| Cc1ccc([C@H](C)NC(=O)Cn2nc3ccccn3c2=O)cc1 |  | > 80 | 1 | 50 | 10 | 50 | 1 |  |  |  |  |
| C[C@H](NC(=O)Cn1nc2ccc(F)cn2c1=O)c1ccc(C(F)(F)F)cc1 |  | > 80 | 1 | 50 |  | 50 | 1 | < 1 |  |  |  |
| C[C@H](NC(=O)Cn1nc2cc(N3CCCCC3)ccn2c1=O)c1ccc(OC(F)(F)F)cc1 | < 1 | 50 |  | > 80 |  | > 80 |  | ≥ 100 | < 1 |  |  |
| COc1cccc2nn(CC(=O)N[C@@H](C)c3ccc(OC(F)(F)F)cc3)c(=O)n12 | < 1 | > 80 | 1 | 50 | 1 | > 80 |  |  |  |  |  |
| C[C@H](NC(=O)Cn1nc2cccnn2c1=O)c1ccc(OC(F)(F)F)c(F)c1 |  | > 80 | 1 | 50 | 10 | 50 | 1 |  |  |  |  |
| Cc1cnn2c(=O)n(CC(=O)N[C@@H](C)c3ccc(Cl)c(F)c3)nc2c1C | < 1 | > 80 |  | > 80 |  | 50 |  | < 1 | < 1 |  |  |
| CNc1ccnn2c(=O)n(CC(=O)N[C@@H](C)c3ccc(OC(F)(F)F)cc3)nc12 | < 1 | > 80 | 1 | 50 | 10 | 50 |  |  |  |  |  |
| Cc1ccc2nn(CC(=O)N[C@@H](C)c3ccc(Cl)c(F)c3)c(=O)n2n1 | < 1 | > 80 |  | > 80 | 10 | 50 |  |  | < 1 |  |  |
| COc1ccn2c(=O)n(CC(=O)N[C@@H](C)c3c(C)cc(C)cc3C)nc2c1 | ≥ 100 | 50 | 10 |  | 10 |  |  |  |  | 25 | 25 |
| C[C@H](NC(=O)Cn1nc2ccccn2c1=O)c1ccc(Cl)c(Cl)c1 | < 1 | > 80 | 1 | > 80 | 1 | > 80 |  |  |  |  |  |
| C[C@H](NC(=O)Cn1nc2cccnn2c1=O)c1ccc(Cl)cc1 |  | > 80 | 10 | 50 |  |  | 1 | ≥ 100 |  |  | 25 |
| C[C@H](NC(=O)Cn1nc2cc(OC3CN(C)C3)ccn2c1=O)c1ccc(OC(F)(F)F)cc1 |  | 50 |  | 50 |  | > 80 | 10 | ≥ 100 | ≥ 100 |  |  |
| Cc1ccnn2c(=O)n(CC(=O)N[C@@H](C)c3ccc(Cl)c(F)c3)nc12 | < 1 | > 80 | 1 | > 80 | 10 | > 80 |  |  |  |  |  |
| Cc1cnn2c(=O)n(CC(=O)N[C@@H](C)c3ccc(Cl)c(F)c3)nc2c1 |  | > 80 | 1 | > 80 |  | 50 | 1 | ≥ 100 |  |  |  |
| Cc1ccn2c(=O)n(CC(=O)N[C@@H](C)c3ccc(Cl)c(F)c3)nc2n1 |  | > 80 |  | 50 | 1 |  | 1 |  | ≥ 100 |  | 25 |
| COc1ccn2c(=O)n(CC(=O)N[C@@H](C)c3ccc(OC(F)(F)F)cc3)nc2c1 | < 1 | > 80 |  | 50 | 1 | > 80 |  |  | < 1 |  |  |
